Where two headings read alike, the source gives them in different places.
Assay: Room temperature evaporation rate: rate of weight loss in a stream of 25° C. nitrogen relative to n-butyl acetate
Assay type: physicochemical
Experimental: Most compounds released by manufacturing processes affect the environment in some manner. […] The room temperature evaporation rates of some of the ILs described in the present invention were compared to several well known compounds by measuring the rate of weight loss in a stream of 25° C. nitrogen relative to the rate of weight loss of n-butyl acetate under the same conditions.

[1] = rate of weight loss in a stream of 25° C. nitrogen, relative to n-butyl acetate under the same conditions

Molecule	Evaporation Rate (n-Butyl Acetate = 1) [1]	Evaporation Rate (n-Butyl Acetate = 1)
CCCCC(CC)C(=O)O (stereo not shown) [H2eh, 2-ethylhexanoic acid]	0.003	–
CC(C)O [IPA]	2.5	–
CCCCC(CC)C(=O)[O-].CCCCC(CC)C(=O)[O-].[Zn+2] (stereo not shown) [Zn(2eh)2, zinc (II) 2-ethylhexanoate]	–	<0.001
CC(C)=O [acetone]	14.4	–
OCCO [ethylene glycol]	–	<0.01
CCCCCC [hexane]	–	8.9
CCC(C)=O [methyl ethyl ketone]	5.7	–
CCCCO [n-Butanol]	0.43	–
Cc1ccccc1 [toluene]	1.9	–
xylene	0.8	–

Source: patent US20070129568A1, “Ionic liquids” (nGimat, Co., priority 2005, published 2007)
